Earlier results on one compound are cited in patent publication US8389572B2, “Therapeutic delivery of carbon monoxide” (hemoCORM Limited, priority 2006, dated 2013).

The conditions of the data set: disclosed in WO 02/092075 and WO 2004/045598.

For the compound `F[P-](F)(F)(F)(F)F.O=[C]=[Fe](=[C]=O)(=[C]=O)[CH]1C=CC=C1` [[CpFe(CO)3]PF6], the “precipitate during release of CO” value was “produced a precipitate during release of CO”. For the same compound, the solubility result (solvent) is reported as “soluble in dimethylsulphoxide (DMSO)”.
